According to patent US6610715B1, “Cathecol hydrazone derivatives, process for preparing the same and pharmaceutical composition containing the same” (Cheil Jedang Corporation, priority 2001, dated 2003):

Test system: Phosphodiesterase IV partially purified from human U937 cells
Assay: Inhibition of Phosphodiesterase IV Activity ([3H]cAMP hydrolysis, scintillation counting)
Format: biochemical
Details: 1.0 uM cAMP, 30° C., 20 minutes
Experimental: Compounds prepared by Examples 1 through 16 and Rolipram as control were tested on the inhibition of phosphodiesterase IV.
Phosphodiesterase IV partially purified from human U937 cells, test compound and 1.0 uM cAMP including 0.01 uM[^3H]cAMP were incubated at 30° C. for 20 minutes. The PDE reaction to convert cAMP into AMP was […] by boiling the reaction solution for 2 minutes. AMP was converted into adenosine by adding snake venom nucleotidase and incubating the reaction solution at 30° C. for 10 minutes. While unhydrolyzed cAMPs were bonded to AG1-X2 resin, the [^3H]adenosine in the aqueous solution was quantified by scintillation counting. The results are shown in Table I below, in which the values indicate inhibition (%) of the PDE IV by each test compound.

[1] = test compound concentration 2 uM
[2] = test compound concentration 20 uM

SMILES | Inhibition (%) of the PDE IV [1] [%] | Inhibition (%) of the PDE IV [2] [%]
COc1ccc(/C=N/NC(=O)c2ccncc2)cc1OC1CCCC1 [EXAMPLE 1, (E)-3-cyclopentyloxy-4-methoxybenzaldehyde isonicotinic hydrazone] | 38.4 | 66.7
CCOC(=O)N/N=C/c1ccc(OC)c(OC2CCCC2)c1 [EXAMPLE 2, (E)-ethyl[(3-cyclopentyloxy-4-methoxyphenyl)methylene]hydrazinoformate] | 46.7 | 63.7
COc1ccc(/C=N/Nc2ccccc2)cc1OC1CCCC1 [EXAMPLE 3, (E)-3-cyclopentyloxy-4-methoxybenzaldehyde phenylhydrazone] | 46.6 | 80.4
COc1ccc(/C=N/NC(C)=O)cc1OC1CCCC1 [EXAMPLE 4, (E)-3-cyclopentyloxy-4-methoxybenzaldehyde acetic hydrazone] | 51.7 | 72.1
COc1ccc(/C=N/NC2=NCCN2)cc1OC1CCCC1 [EXAMPLE 6, (E)-3-cyclopentyloxy-4-methoxybenzaldehyde 2-imidazolinohydrazone] | 31.7 | 58.3
COc1ccc(/C=N/NC(N)=O)cc1OC1CCCC1 [EXAMPLE 7, (E)-2-[(3-cyclopentyloxy-4-methoxyphenyl)methylene]hydrazinecarboxamide] | 66.2 | 89.7
COc1ccc(/C=N/NC(N)=S)cc1OC1CCCC1 [EXAMPLE 9, (E)-2-[(3-cyclopentyloxy-4-methoxyphenyl)methylene]hydrazinecarbothioamide] | 69.0 | 81.0
COc1ccc(/C=N/Nc2ccc(Cl)cc2)cc1OC1CCCC1 [EXAMPLE 10, (E)-3-cyclopentyloxy-4-methoxybenzaldehyde 4chlorophenylhydrazone] | 39.3 | 70.7
COc1ccc(/C=N/NC(=O)C[N+](C)(C)C)cc1OC1CCCC1 [EXAMPLE 11, (E)-2[(3-cyclopentyloxy-4-methoxyphenyl)methylene]hydrazinecarbonylmethyl(trimethyl)ammonium chloride] | 43.3 | 45.1
COc1ccc(/C=N/N2CCCCC2)cc1OC1CCCC1 [EXAMPLE 13, (E)-N-piperidino-3-cyclopentyloxy-4-methoxyphenylmethaneimine] | 31.4 | 73.3
COc1ccc(/C=N/NC(=N)N)cc1OC1CCCC1 [EXAMPLE 14, (E)-2-[(3-cyclopentyloxy-4-methoxyphenyl)methylene]hydrazinecarboximidamide] | 14.7 | 57.7
COc1ccc(/C=N/Nc2ccccn2)cc1OC1CCCC1 [EXAMPLE 15, (E)-3-cyclopentyloxy-4-methoxybenzaldehyde 2-pyridinylhydrazone] | 49.4 | 63.6
COc1ccc(/C=N/Nc2ccccc2C(=O)O)cc1OC1CCCC1 [EXAMPLE 16, (E)-3-cyclopentyloxy-4-methoxybenzaldehyde 2-carboxyphenylhydrazone] | 42.3 | 76.6
COc1ccc(C2CNC(=O)C2)cc1OC1CCCC1 (stereo not shown) [Rolipram, reference compound] | 62.5 | 70.1
